Measurements taken from ChEMBL document CHEMBL5465560, “Selectivity Literature for EUbOPEN Chemogenomic Library” (2024).

Legend:
[1] = molecular target: Ephrin type-A receptor 2 (Homo sapiens) (UniProt P29317); assay: Selectivity interaction (KinomeScan (DiscoverX)) EUB0000229b EPHA2; details: at 10 µM
[2] = molecular target: T1, Protein kinase C epsilon type (Homo sapiens) (UniProt Q02156); assay: Selectivity interaction (Upstate Kinase Profiler service (Millipore)) EUB0000056c PRKCE; details: at 1 µM
T1 sequence (whole entry): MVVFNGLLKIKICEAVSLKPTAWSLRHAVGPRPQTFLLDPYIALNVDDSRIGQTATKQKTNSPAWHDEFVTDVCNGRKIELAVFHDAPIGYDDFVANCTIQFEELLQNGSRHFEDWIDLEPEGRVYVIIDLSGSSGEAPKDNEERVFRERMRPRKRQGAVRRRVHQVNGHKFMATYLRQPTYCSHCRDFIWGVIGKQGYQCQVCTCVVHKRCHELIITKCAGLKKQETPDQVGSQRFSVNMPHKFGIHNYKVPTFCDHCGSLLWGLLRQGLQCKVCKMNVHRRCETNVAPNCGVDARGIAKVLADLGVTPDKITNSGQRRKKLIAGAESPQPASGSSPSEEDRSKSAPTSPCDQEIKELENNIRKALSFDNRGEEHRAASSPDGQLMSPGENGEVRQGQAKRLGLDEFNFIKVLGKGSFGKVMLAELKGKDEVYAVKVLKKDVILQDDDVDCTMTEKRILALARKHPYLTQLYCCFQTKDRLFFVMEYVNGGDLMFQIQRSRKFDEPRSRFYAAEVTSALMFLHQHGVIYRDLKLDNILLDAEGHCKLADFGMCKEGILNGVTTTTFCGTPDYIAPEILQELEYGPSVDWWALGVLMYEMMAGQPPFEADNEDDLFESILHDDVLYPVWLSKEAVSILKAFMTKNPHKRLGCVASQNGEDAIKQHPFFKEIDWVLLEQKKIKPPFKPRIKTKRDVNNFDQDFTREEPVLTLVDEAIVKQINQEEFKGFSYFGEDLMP

[3] = test system: T2, Receptor-type tyrosine-protein kinase FLT3 (Homo sapiens), P36888 [D835Y]; assay: (§1) Selectivity interaction (ProQinase) EUB0000171b FLT3
T2 sequence (whole entry): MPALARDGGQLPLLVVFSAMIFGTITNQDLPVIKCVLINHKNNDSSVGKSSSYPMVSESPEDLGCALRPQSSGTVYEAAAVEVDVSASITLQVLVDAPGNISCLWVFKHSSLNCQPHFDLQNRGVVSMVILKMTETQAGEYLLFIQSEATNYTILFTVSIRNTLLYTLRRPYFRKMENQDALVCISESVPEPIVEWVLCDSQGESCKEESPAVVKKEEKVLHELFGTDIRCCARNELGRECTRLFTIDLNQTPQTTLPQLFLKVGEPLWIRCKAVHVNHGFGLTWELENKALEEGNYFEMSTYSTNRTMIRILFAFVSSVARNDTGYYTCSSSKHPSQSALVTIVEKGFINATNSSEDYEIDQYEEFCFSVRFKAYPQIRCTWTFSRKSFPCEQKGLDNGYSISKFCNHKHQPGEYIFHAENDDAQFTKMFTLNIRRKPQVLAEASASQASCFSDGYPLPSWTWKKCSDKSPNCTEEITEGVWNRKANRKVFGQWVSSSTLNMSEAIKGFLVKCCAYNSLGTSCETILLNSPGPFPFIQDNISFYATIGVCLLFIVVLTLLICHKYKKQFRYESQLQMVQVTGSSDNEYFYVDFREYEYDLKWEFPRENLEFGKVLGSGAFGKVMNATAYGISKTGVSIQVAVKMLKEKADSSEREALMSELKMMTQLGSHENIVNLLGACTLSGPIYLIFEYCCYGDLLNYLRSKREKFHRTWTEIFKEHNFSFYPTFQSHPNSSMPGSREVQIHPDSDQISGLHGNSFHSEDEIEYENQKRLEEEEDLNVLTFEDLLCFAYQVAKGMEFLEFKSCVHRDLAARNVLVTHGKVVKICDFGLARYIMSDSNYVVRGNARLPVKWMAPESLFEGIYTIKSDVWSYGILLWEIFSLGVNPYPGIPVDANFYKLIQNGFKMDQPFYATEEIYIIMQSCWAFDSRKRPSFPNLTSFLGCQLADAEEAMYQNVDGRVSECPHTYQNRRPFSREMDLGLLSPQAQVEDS

[4] = molecular target: Receptor-type tyrosine-protein kinase FLT3 (Homo sapiens) (UniProt P36888); assay: as §1
[5] = molecular target: Receptor tyrosine-protein kinase erbB-2 (Homo sapiens, UniProt P04626); assay: Selectivity interaction (KinomeScan (DiscoverX)) EUB0000666a ERBB2; details: at 10 µM
[6] = molecular target: T3, Tyrosine-protein kinase Mer (Homo sapiens) (UniProt Q12866); assay: Selectivity interaction (KinomeScan (DiscoverX)) EUB0001049a MERTK; details: at 1 µM
T3 sequence (whole entry): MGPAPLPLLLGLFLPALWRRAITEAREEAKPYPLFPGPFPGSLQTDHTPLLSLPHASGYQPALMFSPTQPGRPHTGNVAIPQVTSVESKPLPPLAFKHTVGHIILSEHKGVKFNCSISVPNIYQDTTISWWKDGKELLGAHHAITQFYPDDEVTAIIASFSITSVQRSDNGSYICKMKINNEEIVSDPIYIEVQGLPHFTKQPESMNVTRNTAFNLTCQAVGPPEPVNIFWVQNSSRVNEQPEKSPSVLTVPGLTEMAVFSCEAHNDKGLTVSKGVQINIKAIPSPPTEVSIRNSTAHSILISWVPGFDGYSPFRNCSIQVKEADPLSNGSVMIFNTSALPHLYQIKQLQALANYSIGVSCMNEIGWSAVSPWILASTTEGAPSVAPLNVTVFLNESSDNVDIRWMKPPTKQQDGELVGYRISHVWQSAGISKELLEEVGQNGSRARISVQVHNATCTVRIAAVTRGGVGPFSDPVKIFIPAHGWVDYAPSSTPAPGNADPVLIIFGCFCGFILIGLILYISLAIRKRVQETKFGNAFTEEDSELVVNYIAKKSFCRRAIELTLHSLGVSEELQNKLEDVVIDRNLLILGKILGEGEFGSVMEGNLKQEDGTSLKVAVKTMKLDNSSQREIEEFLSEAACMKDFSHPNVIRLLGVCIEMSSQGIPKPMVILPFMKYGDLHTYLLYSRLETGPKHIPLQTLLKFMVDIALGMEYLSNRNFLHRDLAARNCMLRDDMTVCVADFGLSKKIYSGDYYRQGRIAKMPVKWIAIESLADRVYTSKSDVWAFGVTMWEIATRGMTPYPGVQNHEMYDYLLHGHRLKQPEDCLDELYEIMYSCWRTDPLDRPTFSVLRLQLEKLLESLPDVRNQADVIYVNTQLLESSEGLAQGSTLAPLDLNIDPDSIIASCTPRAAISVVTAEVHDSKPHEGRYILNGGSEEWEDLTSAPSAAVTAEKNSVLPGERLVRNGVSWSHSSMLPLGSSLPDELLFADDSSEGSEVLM

[7] = molecular target: Histone-lysine N-methyltransferase KMT5B (Homo sapiens) (UniProt Q4FZB7); details: at 10 µM
Sequence of Histone-lysine N-methyltransferase KMT5B (Homo sapiens) (Q4FZB7 whole entry, looked up): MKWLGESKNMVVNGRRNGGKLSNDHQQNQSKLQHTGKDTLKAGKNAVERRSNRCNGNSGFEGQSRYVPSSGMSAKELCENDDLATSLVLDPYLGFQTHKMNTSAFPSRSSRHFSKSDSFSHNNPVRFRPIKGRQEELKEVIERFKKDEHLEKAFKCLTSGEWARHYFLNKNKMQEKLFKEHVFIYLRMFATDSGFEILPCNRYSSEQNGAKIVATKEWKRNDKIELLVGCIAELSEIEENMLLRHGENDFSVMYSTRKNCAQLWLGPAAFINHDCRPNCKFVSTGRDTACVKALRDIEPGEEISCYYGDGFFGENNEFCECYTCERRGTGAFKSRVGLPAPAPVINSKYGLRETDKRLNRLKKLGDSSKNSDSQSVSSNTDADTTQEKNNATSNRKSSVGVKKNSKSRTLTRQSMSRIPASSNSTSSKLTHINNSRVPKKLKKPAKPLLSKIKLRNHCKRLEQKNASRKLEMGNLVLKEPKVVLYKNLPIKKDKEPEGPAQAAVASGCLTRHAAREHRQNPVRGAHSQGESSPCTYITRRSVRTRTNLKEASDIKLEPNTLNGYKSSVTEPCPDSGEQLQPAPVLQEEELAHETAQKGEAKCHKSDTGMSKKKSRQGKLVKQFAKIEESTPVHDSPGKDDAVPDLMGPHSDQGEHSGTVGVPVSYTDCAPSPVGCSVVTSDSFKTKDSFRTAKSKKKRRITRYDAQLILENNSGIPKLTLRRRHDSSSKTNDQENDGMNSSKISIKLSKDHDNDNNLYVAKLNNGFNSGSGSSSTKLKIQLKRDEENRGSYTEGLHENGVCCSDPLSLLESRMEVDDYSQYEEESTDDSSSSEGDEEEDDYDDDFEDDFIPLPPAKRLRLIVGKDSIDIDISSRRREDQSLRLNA

Sequence of Receptor tyrosine-protein kinase erbB-2 (P04626 whole entry): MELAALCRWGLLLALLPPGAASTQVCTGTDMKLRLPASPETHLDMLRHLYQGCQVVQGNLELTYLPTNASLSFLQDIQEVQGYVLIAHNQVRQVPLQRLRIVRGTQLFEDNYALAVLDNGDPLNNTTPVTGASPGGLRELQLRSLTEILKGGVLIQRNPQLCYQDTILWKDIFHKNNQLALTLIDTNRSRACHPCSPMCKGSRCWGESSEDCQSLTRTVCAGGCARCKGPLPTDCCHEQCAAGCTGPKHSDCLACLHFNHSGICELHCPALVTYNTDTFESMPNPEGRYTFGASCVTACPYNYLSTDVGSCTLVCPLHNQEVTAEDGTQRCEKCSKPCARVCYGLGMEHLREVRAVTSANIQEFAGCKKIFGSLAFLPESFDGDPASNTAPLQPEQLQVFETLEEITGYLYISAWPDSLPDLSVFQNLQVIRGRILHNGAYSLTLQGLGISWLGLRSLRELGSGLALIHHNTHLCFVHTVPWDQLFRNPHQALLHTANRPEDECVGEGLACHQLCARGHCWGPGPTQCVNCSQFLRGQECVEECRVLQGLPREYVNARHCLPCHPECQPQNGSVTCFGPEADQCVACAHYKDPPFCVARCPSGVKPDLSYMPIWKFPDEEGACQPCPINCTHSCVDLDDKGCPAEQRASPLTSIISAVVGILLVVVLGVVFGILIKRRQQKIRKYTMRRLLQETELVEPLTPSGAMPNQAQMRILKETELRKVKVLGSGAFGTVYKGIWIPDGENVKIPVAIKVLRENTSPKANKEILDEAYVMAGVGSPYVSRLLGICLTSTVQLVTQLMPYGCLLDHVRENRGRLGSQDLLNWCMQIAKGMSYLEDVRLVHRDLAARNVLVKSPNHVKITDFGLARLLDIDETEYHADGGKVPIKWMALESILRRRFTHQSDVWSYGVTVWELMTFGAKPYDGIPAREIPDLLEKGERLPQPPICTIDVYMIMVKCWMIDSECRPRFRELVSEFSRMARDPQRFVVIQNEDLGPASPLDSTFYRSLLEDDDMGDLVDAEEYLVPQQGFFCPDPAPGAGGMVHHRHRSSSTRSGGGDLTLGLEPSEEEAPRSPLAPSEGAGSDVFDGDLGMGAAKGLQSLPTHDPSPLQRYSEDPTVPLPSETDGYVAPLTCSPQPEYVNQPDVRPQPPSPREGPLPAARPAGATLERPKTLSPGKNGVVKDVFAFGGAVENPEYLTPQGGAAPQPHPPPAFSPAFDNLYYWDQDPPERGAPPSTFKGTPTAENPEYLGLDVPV
Sequence of Ephrin type-A receptor 2 (Homo sapiens) (P29317 whole entry): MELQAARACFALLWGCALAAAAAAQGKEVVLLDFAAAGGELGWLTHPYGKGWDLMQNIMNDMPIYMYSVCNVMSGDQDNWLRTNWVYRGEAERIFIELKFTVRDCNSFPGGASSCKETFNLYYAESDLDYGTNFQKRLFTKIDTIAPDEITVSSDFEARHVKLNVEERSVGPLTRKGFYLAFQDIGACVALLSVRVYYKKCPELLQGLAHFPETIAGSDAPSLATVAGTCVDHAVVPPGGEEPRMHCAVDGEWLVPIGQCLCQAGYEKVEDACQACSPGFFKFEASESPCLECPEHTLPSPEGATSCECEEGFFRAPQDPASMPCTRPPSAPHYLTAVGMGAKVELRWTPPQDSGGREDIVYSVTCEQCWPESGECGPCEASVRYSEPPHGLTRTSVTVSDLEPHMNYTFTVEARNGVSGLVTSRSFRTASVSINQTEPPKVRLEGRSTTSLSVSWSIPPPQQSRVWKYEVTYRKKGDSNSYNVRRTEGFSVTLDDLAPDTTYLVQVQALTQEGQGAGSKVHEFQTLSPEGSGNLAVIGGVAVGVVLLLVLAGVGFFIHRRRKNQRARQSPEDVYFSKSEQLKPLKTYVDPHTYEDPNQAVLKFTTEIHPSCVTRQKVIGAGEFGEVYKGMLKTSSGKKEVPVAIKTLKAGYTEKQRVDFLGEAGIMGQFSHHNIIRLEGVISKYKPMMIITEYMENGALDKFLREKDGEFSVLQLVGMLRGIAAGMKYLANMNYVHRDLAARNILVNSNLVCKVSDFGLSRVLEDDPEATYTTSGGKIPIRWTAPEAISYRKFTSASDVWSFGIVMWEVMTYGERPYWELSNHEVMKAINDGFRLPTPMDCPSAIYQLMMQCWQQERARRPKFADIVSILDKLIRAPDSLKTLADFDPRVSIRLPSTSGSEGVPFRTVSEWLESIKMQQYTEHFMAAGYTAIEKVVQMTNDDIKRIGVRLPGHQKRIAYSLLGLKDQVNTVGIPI

COc1cc(N(C)c2ccnc3ccc(C(F)(F)F)cc23)cc(OC)c1OC
% binding [1]: 88%

Cc1ccc(-c2ccc3c(ccc4sc5c(c43)NC[C@@H](C)NC5=O)n2)cn1
% of inhibition [2]: 8%

C=CC(=O)Nc1cccc(C(=O)Nc2ccc(Nc3cc(-c4[nH]c(SC)nc4C)ccn3)cc2)c1
% of control ([3]; at 1 µM): 65%
% of control ([3]; at 5 µM): 32%
% of control ([4]; at 1 µM): 78%
% of control ([4]; at 5 µM): 49%

O=C(NOC[C@H](O)CO)c1ccc(F)c(F)c1Nc1ccc(I)cc1F
% of control [5]: 100%

COc1cc(Nc2nc(C)cc(-c3cnn4nc(OC)ccc34)n2)cc(C(F)(F)F)c1
% of control [6]: 98%

CNCCN1CCC(c2cc(CN(C)C(=O)c3cccc(Oc4ccccc4)c3)ccn2)CC1
% activity [7]: > 90%
